target: human GPR17 short isoform (Homo sapiens, UniProt Q13304); experiment: GPR17 cAMP assay (antagonist mode, TR-FRET cAMP detection); assay type: cell-based; conditions: CHO-K1 cells stably expressing human GPR17 short isoform; with EC80 concentration of agonist MDL29,951, IBMX 0.5mM, forskolin 15µM; normalized to reference antagonist; read-out: hGPR17 cAMP IC50
Description: CHO-K1 cells stably expressing vector containing untagged human GPR17 short isoform (Roche) were cultured at 37°C / 5% CO2 in DMEM (Dulbecco's Modified Eagle Medium):F-12 (1:1) supplemented with 10% foetal bovine serum and 400 µg/ml Geneticin.
Changes in intracellular cyclic adenosine monophosphate (cAMP) levels were quantified using the Nano-TRF Detection Assay kit (Roche Diagnostics, Cat. No. 05214386001). This assay allows for direct cAMP quantification in a homogeneous solution. cAMP is detected based on time-resolved fluorescence energy transfer (TR-FRET) and competitive binding of ruthenylated cAMP and endogenous cAMP to an anti-cAMP monoclonal antibody labeled with AlexaFluor-700. The Ruthenium complex serves as the FRET donor and transfers energy to AlexaFluor-700. The FRET signal is inversely proportional to the cAMP concentration.
CHO-GPR17S cells were detached with Accutase and resuspended in assay buffer consisting of Hank's Balanced Salt Solution (HBSS), 10mM HEPES (4-(2-hydroxyethyl) piperazine-1-ethanesulfonic acid solution) and 0.1% bovine serum albumin (pH 7.4). The cells were seeded in black 384-well plates (Corning) at a density of 10'000 cells / 20µl assay buffer until the addition of compounds.
Test antagonist compounds were serially diluted in dimethyl sulfoxide (DMSO) and spotted in 384-well plates. The compounds were then diluted in HBSS buffer supplemented with an EC80 concentration of MDL29,951 (3-(2-Carboxy-4,6-dichloroindol-3-yl)propionic acid) (GPR17 agonist) plus 3-Isobutyl-1-methylxanthine (IBMX) (0.5mM final concentration) and added to the cells at room temperature. Forskolin (15µM final concentration) was added 5 minutes after the test compounds and the cells were incubated at room temperature for 30 minutes. The assay was stopped by adding cAMP detection mix (containing detergents for cell lysis) for 90 minutes at room temperature.
Cellular cAMP was measured using a Paradigm reader (Molecular Devices). The raw data was used to calculate the FRET signal based on the assay's P-factor as per cAMP kit instructions. The data was normalized to the maximal activity of a reference antagonist and dose response curves were fitted to the percent activity of the test compounds using a sigmoidal dose response model (Genedata Screener).
Results in the hGPR17 cAMP assay are provided for compounds of formula I in Table 1 Table 1: […]

human GPR17 short isoform, sequence (Q13304 29-367): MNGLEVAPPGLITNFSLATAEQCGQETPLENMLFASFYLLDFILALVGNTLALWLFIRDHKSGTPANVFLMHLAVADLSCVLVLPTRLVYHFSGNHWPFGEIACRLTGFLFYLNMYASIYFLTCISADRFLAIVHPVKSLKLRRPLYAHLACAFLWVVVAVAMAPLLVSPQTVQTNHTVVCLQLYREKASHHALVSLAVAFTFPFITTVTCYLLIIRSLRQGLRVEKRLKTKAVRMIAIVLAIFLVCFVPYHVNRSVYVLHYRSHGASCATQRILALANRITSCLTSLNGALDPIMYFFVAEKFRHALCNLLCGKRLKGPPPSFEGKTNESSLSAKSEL

`COc1nc(NS(=O)(=O)c2c[nH]c3c(-n4ccc(C)n4)cccc23)nc(OC)c1CC(F)F` [Example 1, N-[5-(2,2-difluoroethyl)-4,6-dimethoxy-pyrimidin-2-yl]-7-(3-methylpyrazol-1-yl)-1H-indole-3-sulfonamide] and `COc1nc(NS(=O)(=O)c2c[nH]c3c(-n4ccnc4C)cccc23)nc(OC)c1CC(F)F` [Example 5, N-[5-(2,2-difluoroethyl)-4,6-dimethoxy-pyrimidin-2-yl]-7-(2-methylimidazol-1-yl)-1H-indole-3-sulfonamide] are within 1.5-fold of each other in IC50: 0.068 µM for the first, 0.048 µM for the second.

Going from `COc1nc(NS(=O)(=O)c2c[nH]c3c(-n4nc(C)cc4C)cccc23)nc(OC)c1CC(F)F` [Example 2, N-[5-(2,2-difluoroethyl)-4,6-dimethoxy-pyrimidin-2-yl]-7-(3,5-dimethylpyrazol-1-yl)-1H-indole-3-sulfonamide] to `COc1nc(NS(=O)(=O)c2c[nH]c3c(-n4ccnc4)cccc23)nc(OC)c1CC(F)F` [Example 3, N-[5-(2,2-difluoroethyl)-4,6-dimethoxy-pyrimidin-2-yl]-7-imidazol-1-yl-1H-indole-3-sulfonamide], the IC50 rises from 0.032 µM to 0.3 µM (9.4-fold).

`COc1nc(NS(=O)(=O)c2c[nH]c3c(-n4cccn4)c(Cl)ccc23)nc(OC)c1CC(F)F` [Example 4, 6-chloro-N-[5-(2,2-difluoroethyl)-4,6-dimethoxy-pyrimidin-2-yl]-7-pyrazol-1-yl-1H-indole-3-sulfonamide] and `COc1nc(NS(=O)(=O)c2c[nH]c3c(-n4nccn4)c(Cl)ccc23)nc(OC)c1CC(F)F` [Example 7, 6-chloro-N-[5-(2,2-difluoroethyl)-4,6-dimethoxy-pyrimidin-2-yl]-7-(triazol-2-yl)-1H-indole-3-sulfonamide] are within 1.5-fold of each other in IC50: 0.022 µM for the first, 0.021 µM for the second.

First: COc1nc(NS(=O)(=O)c2c[nH]c3c(-n4ccnc4)c(Cl)ccc23)nc(OC)c1OCC(F)F [Example 6, 6-chloro-N-[5-(2,2-difluoroethoxy)-4,6-dimethoxy-pyrimidin-2-yl]-7-imidazol-1-yl-1H-indole-3-sulfonamide]
Second: COc1nc(NS(=O)(=O)c2c[nH]c3c(-n4nccn4)c(Cl)ccc23)nc(OC)c1OCC(F)F [Example 9, 6-chloro-N-[5-(2,2-difluoroethoxy)-4,6-dimethoxy-pyrimidin-2-yl]-7-(triazol-2-yl)-1H-indole-3-sulfonamide]
The IC50 of the first is 1.6-fold higher: 0.05 µM for the first, 0.032 µM for the second.

Compared with `COc1nc(NS(=O)(=O)c2c[nH]c3c(-n4ccnc4)c(Cl)ccc23)ncc1CC(F)F` [Example 8, 6-chloro-N-[5-(2,2-difluoroethyl)-4-methoxy-pyrimidin-2-yl]-7-imidazol-1-yl-1H-indole-3-sulfonamide], `COc1nc(NS(=O)(=O)c2c[nH]c3c(-n4cnnc4)c(Cl)ccc23)nc(OC)c1CC(F)F` [Example 10, 6-chloro-N-[5-(2,2-difluoroethyl)-4,6-dimethoxy-pyrimidin-2-yl]-7-(1,2,4-triazol-4-yl)-1H-indole-3-sulfonamide] is 2.5-fold lower in IC50: 0.248 µM for the first, 0.1 µM for the second.

First: COc1nc(NS(=O)(=O)c2c[nH]c3c(-n4nccn4)c(C(F)F)ccc23)nc(OC)c1OCC(F)F [Example 11, N-[5-(2,2-difluoroethoxy)-4,6-dimethoxy-pyrimidin-2-yl]-6-(difluoromethyl)-7-(triazol-2-yl)-1H-indole-3-sulfonamide]
Second: COc1nc(NS(=O)(=O)c2c[nH]c3c(-n4nccn4)c(C)ccc23)nc(OC)c1OCC(F)F [Example 25, N-[5-(2,2-difluoroethoxy)-4,6-dimethoxy-pyrimidin-2-yl]-6-methyl-7-(triazol-2-yl)-1H-indole-3-sulfonamide]
The IC50 of the first is 2.2-fold higher: 0.074 µM for the first, 0.034 µM for the second.

Compared with `COc1nc(NS(=O)(=O)c2c[nH]c3c(-n4nccn4)c(Cl)ccc23)ncc1OCCF` [Example 12, 6-chloro-N-[5-(2-fluoroethoxy)-4-methoxy-pyrimidin-2-yl]-7-(triazol-2-yl)-1H-indole-3-sulfonamide], `COc1nc(NS(=O)(=O)c2c[nH]c3c(-n4nccn4)c(Cl)ccc23)nc(OC)c1OCCF` [Example 14, 6-chloro-N-[5-(2-fluoroethoxy)-4,6-dimethoxy-pyrimidin-2-yl]-7-(triazol-2-yl)-1H-indole-3-sulfonamide] is 1.9-fold lower in IC50: 0.052 µM for the first, 0.028 µM for the second.

First: COc1nc(NS(=O)(=O)c2c[nH]c3c(-n4nccn4)cccc23)nc(OC)c1CC(F)F [Example 13, N-[5-(2,2-difluoroethyl)-4,6-dimethoxy-pyrimidin-2-yl]-7-(triazol-2-yl)-1H-indole-3-sulfonamide]
Second: COc1nc(NS(=O)(=O)c2c[nH]c3c(-n4nccn4)cccc23)nc(OC)c1OCC(F)F [Example 20, N-[5-(2,2-difluoroethoxy)-4,6-dimethoxy-pyrimidin-2-yl]-7-(triazol-2-yl)-1H-indole-3-sulfonamide]
The IC50 of the first is 2.2-fold lower: 0.203 µM for the first, 0.447 µM for the second.

Compared with `COc1nc(NS(=O)(=O)c2c[nH]c3c(-n4nccn4)c(Cl)ccc23)nc(OC)c1OC(F)F` [Example 15, 6-chloro-N-[5-(difluoromethoxy)-4,6-dimethoxy-pyrimidin-2-yl]-7-(triazol-2-yl)-1H-indole-3-sulfonamide], `COc1nc(NS(=O)(=O)c2c[nH]c3c(-n4nccn4)c(C)ccc23)nc(OC)c1OC(F)F` [Example 24, N-[5-(difluoromethoxy)-4,6-dimethoxy-pyrimidin-2-yl]-6-methyl-7-(triazol-2-yl)-1H-indole-3-sulfonamide] is 1.5-fold higher in IC50: 0.025 µM for the first, 0.038 µM for the second. The first is the more potent here.

`COc1nc(NS(=O)(=O)c2c[nH]c3c(-n4nccn4)c(Cl)ccc23)nc(OC)c1CC(F)CF` (centres unmarked) [Example 16, 6-chloro-N-[5-(2,3-difluoropropyl)-4,6-dimethoxy-pyrimidin-2-yl]-7-(triazol-2-yl)-1H-indole-3-sulfonamide] and `COc1nc(NS(=O)(=O)c2c[nH]c3c(-n4nccn4)c(Cl)ccc23)nc(OC)c1CCC(F)F` [Example 17, 6-chloro-N-[5-(3,3-difluoropropyl)-4,6-dimethoxy-pyrimidin-2-yl]-7-(triazol-2-yl)-1H-indole-3-sulfonamide] are the same in IC50: 0.024 µM for the first, 0.024 µM for the second.

`COc1nc(NS(=O)(=O)c2c[nH]c3c(-n4nccn4)c(Cl)ccc23)nc(OC)c1C1CC1C#N` (centres unmarked) [Example 18, 6-chloro-N-[5-(2-cyanocyclopropyl)-4,6-dimethoxy-pyrimidin-2-yl]-7-(triazol-2-yl)-1H-indole-3-sulfonamide] and `COc1nc(NS(=O)(=O)c2c[nH]c3c(-n4nccn4)c(C)ccc23)nc(OC)c1C1CC1C#N` (centres unmarked) [Example 26, N-[5-(2-cyanocyclopropyl)-4,6-dimethoxy-pyrimidin-2-yl]-6-methyl-7-(triazol-2-yl)-1H-indole-3-sulfonamide] are the same in IC50: 0.025 µM for the first, 0.025 µM for the second.

Going from `COc1nc(NS(=O)(=O)c2c[nH]c3c(-n4nccn4)cccc23)nc(OC)c1OCCF` [Example 19, N-[5-(2-fluoroethoxy)-4,6-dimethoxy-pyrimidin-2-yl]-7-(triazol-2-yl)-1H-indole-3-sulfonamide] to `COc1nc(NS(=O)(=O)c2c[nH]c3c(-n4nccn4)c(C)ccc23)nc(OC)c1OCCF` [Example 23, N-[5-(2-fluoroethoxy)-4,6-dimethoxy-pyrimidin-2-yl]-6-methyl-7-(triazol-2-yl)-1H-indole-3-sulfonamide], the IC50 falls from 0.316 µM to 0.035 µM (9-fold). The second is the more potent here.

First: COc1nc(NS(=O)(=O)c2c[nH]c3c(-n4nccn4)cccc23)nc(OC)c1C1CC1C#N (centres unmarked) [Example 21, N-[5-(2-cyanocyclopropyl)-4,6-dimethoxy-pyrimidin-2-yl]-7-(triazol-2-yl)-1H-indole-3-sulfonamide]
Second: COc1nc(NS(=O)(=O)c2c[nH]c3c(-n4nccn4)c(C)ccc23)nc(OC)c1CC(F)F [Example 22, N-[5-(2,2-difluoroethyl)-4,6-dimethoxy-pyrimidin-2-yl]-6-methyl-7-(triazol-2-yl)-1H-indole-3-sulfonamide]
The IC50 of the first is 9.3-fold higher: 0.195 µM for the first, 0.021 µM for the second.

`COc1nc(NS(=O)(=O)c2c[nH]c3c(-n4nccn4)c(Br)ccc23)nc(OC)c1CC(F)F` [Example 27, 6-bromo-N-[5-(2,2-difluoroethyl)-4,6-dimethoxy-pyrimidin-2-yl]-7-(triazol-2-yl)-1H-indole-3-sulfonamide] and `COc1nc(NS(=O)(=O)c2c[nH]c3c(-n4nccn4)c(Br)ccc23)nc(OC)c1OC(F)F` [Example 29, 6-bromo-N-[5-(difluoromethoxy)-4,6-dimethoxy-pyrimidin-2-yl]-7-(triazol-2-yl)-1H-indole-3-sulfonamide] are within 1.5-fold of each other in IC50: 0.019 µM for the first, 0.022 µM for the second.

For `COc1nc(NS(=O)(=O)c2c[nH]c3c(-n4nccn4)c(Br)ccc23)nc(OC)c1OCCF` [Example 28, 6-bromo-N-[5-(2-fluoroethoxy)-4,6-dimethoxy-pyrimidin-2-yl]-7-(triazol-2-yl)-1H-indole-3-sulfonamide], the IC50 was 0.027 µM.

From EP4562004B1, “NOVEL 7-SUBSTITUTED INDOLE SULFONAMIDE DERIVATIVES” (F. Hoffmann-La Roche AG, priority 2022, dated 2024)
